Columns and labels:
[1] = test system: melon fly (Zeugodacus cucurbitae); assay: Additional fatty acids: melon fly two-choice oviposition bioassay on pumpkin juice agar; format: in vivo; settings: 20 mg, 24 hours
Method: (§1) Oviposition bioassays were conducted using laboratory two-choice cage experiments with pumpkin juice-infused agar (for Melon fly) and guava juice-infused agar (for OFF) as oviposition substrate. The agar plates were prepared by pouring 10 mL of boiled agar mixture [1000 mL distilled water, 500 mL pumpkin or guava juice, 10 g agar, 0.6 g methylparaben, 6.7 mL 95% ethanol, and 3 mL acetic acid] into a small petri dish (60 mm×15 mm). The agar was then covered with a lid to avoid desiccation. The two-choice oviposition bioassay was conducted in screened cages using 20 mated melon fly or OFF females per cage (14-18 day-old; Jang et al.; Supra) over 24 hours. Each cage was provided with a ball of water-saturated cotton and sugar+protein hydrolysate mixture in separate 30 mL deli cups, and two agar plates-one treated with one of the test compounds (C4:0 (Butyric acid), C5:0 (Valeric acid), C6:0 (Caproic acid), C7:0 (Enanthic acid), C9:0 (Pelargonic acid), C11:0 (Undecylic acid), C13:0 (Tridecylic acid), C15:0 (Pentadecylic acid), C17:0 (Margaric acid), or C19:0 (Nonadecylic acid)) diluted in ethanol and the other treated with the ethanol which served as a control. The agar plates were surface-treated either with 200 μL of ethanol (control) or 200 μL of one of tested compounds diluted at 20 mg/200 μL of ethanol, placed into a fume hood for 10 minutes to evaporate solvents prior to be used in bioassays, and positioned upside-down (i.e. treated side down) on the center of the outside top of the screened cage 17 cm apart from each other (i.e. one each of control and treated), allowing female flies to oviposit on pumpkin (for melon fly) or guava juice (for OFF) agar from the bottom through the cage screen. After 24 hours, melon fly and OFF eggs in the agar were gently separated from the agar in water and the number of eggs were individually counted. The experiment was replicated five times per treatment.

oriental fruit fly (OFF) = assay: Additional fatty acids: OFF two-choice oviposition bioassay on guava juice agar, 24 hours; format: in vivo, Bactrocera dorsalis; settings: individual compound, 20 mg dose
Method: as §1

Bactrocera dorsalis = assay: B. dorsalis spatial deterrence, two-choice traps baited with guava juice; format: in vivo; settings: tested individually
Method: In addition to CFA, a series of odd-numbered carbon fatty acids (C9:0 to C17:0) and fatty acid methyl esters were evaluated for the spatial deterrence to B. dorsalis that results in oviposition reduction. Table 3 below lists the fatty acid methyl esters tested for spatial repellency for Bactrocera dorsalis. […] FIG. 16A, FIG. 16C, FIG. 16E, FIG. 16G, FIG. 16I, FIG. 16K, FIG. 16M, FIG. 16O, FIG. 16Q, and FIG. 16S show the mean numbers (±SEM) of mated female B. dorsalis flies captured, and FIG. 16B, FIG. 16D, FIG. 16F, FIG. 16H, FIG. 16J, FIG. 16L, FIG. 16N, FIG. 16P, FIG. 16R, and FIG. 16T show the number of B. dorsalis eggs oviposited in traps baited with guava juice (control) and with guava juice plus one of the coconut fatty acid methyl ester compounds in two-choice bioassays. For each test, different letter on the bar indicate a significant difference by Tukey-Kramer tests at P<0.05, n=4.

Zeugodacus cucurbitae = assay: Spatial repellency of fatty acid methyl esters, two-choice traps with pumpkin juice; format: in vivo; settings: 100 μL doses
From the text: The methods used to test the repellency of fatty acid methyl esters for OFF described above were used in this Example, with minor modifications. The only difference was that pumpkin juice was used as attractant in traps. Melon flies used in this study were from melon fly colony at the U.S Pacific Basin Agricultural Research Center in Hilo, Hawaii, which were maintained on a standard larval diet containing wheat, sugar, and yeast (Tanaka at al., Supra). Chemicals tested were C8:0ME (Methyl octanoate), C10:0ME (Methyl decanoate), C12:0ME (Methyl laurate), C14:0ME (Methyl tetradecanoate), C16:0ME (Methyl palmitate), C18:0ME (Methyl stearate), C18:1ME (Methyl Oleate), and C18:2 (Methyl linoleate).

[2] = test system: Bactrocera dorsalis (OFF); assay: OFF two-choice cage oviposition bioassay on guava juice-infused agar; format: in vivo; settings: individual compound, 20 mg/agar
Method: Evaluation of oviposition deterrence of CFA: OFF oviposition bioassays were conducted using laboratory two-choice cage experiments with guava juice-infused agar as an oviposition substrate. The agar plates were prepared by pouring 30 mL of boiled agar mixture [1000 mL distilled water, 500 mL guava juice (Deans Foods, El Paso, Texas, USA), 10 g agar, 0.6 g methylparaben, 6.7 mL 95% ethanol, and 3 mL acetic acid] into a 30 mL deli plastic cup to gel. The agar was then covered with a lid to avoid desiccation. The two-choice oviposition bioassay was conducted in screened cages using 20 mated OFF females per cage (12-18 day-old; Jang E B et al., 1997, “Attraction of female oriental fruit fly, Bactrocera dorsalis, to volatile semiochemicals from leaves and extracts of a non-host plant, Panax (Polyscias guilfoylei) in laboratory and olfactometer assays,” J. Chem. Ecol. 23:1389-1401) over 3 days. Each cage was provided with a ball of water-saturated cotton, sugar, and protein hydrolysate in separate 30 mL deli cups and two guava juice agar plates-one treated with CFA diluted in hexane and the other treated with the hexane control. The agar plates were surface-treated either with 200 μL of hexane or 200 μL of CFA in one of 4 doses tested (20, 2, 0.2, and 0.02 mg/200 μL of hexane), placed into a fume hood for 10 minutes prior to use in bioassays, and positioned upside-down (i.e., treated side down) on the center of the outside top of the screened cage 17 cm apart from each other (i.e., one each of control and CFA treated), allowing female flies to oviposit on guava juice agar from the bottom through the cage screen. After three days, OFF eggs in the guava agar were gently separated from the agar in water and the number of eggs were individually counted (up to 100 eggs) or estimated volumetrically at 1 mL OFF eggs=20,000 eggs (Stephanie Gayle personal communication). The experiment was replicated six times per treatment. Determination of bioactive oviposition deterrent components from CFA: A series of bioassays was conducted to identify key deterrent components of CFA for OFF using the same two-choice bioassay design described above. […] Ethanol was used as control and for preparing dilutions of C16:0 and C18:0. Hexane was used as control and for dilutions of the other six compounds tested. Based on the outcome of these bioassays, the eight free fatty acid components were assigned to “OFF negative” (i.e., oviposition reduced), “OFF neutral” (i.e., no effect on oviposition), and “OFF positive” (i.e., oviposition increased) compound groups. Using these groupings, four different blends were formulated (indicated in Table 1), composed at the equivalent ratios and concentrations of each component found in CFA (Zhu J J et al., 2018, supra), to determine key bioactive CFA components in terms of oviposition deterrence on OFF. The approach involved testing the bioactivity of the OFF negative-component blend (4c blend) for oviposition deterrence at three different doses (2, 0.2, and 0.02 mg CFA equivalent/agar), first comparing with hexane control, then with CFA at respective equivalent doses. As the 4c blend was not as effective as CFA, a “OFF negative+OFF neutral” component blend (6c blend) was then formulated, and its effect compared with CFA at 2 and 0.2 mg CFA equivalent/agar. Two subtraction blends with one of the two OFF neutral components removed from the 6c blend (5c-i and 5c-ii blends) were formulated and compared with the 6c blend at 2 and 0.2 mg CFA equivalent/agar. The experiment was replicated four to six times per treatment.

CCCC(=O)O [C4:0, Butyric acid]
effect on melon fly oviposition vs control [1]: did not affect melon fly oviposition | effect on OFF oviposition (oriental fruit fly (OFF)): did not affect OFF oviposition

CCCCC(=O)O [C5:0, Valeric acid]
fewer melon fly eggs on treated pumpkin juice agar vs control agar [1]: 72.5% | effect on OFF oviposition (oriental fruit fly (OFF)): did not affect OFF oviposition

CCCCCC(=O)O [C6:0, Caproic acid]
effect on melon fly oviposition vs control [1]: increased melon fly oviposition | effect on OFF oviposition (oriental fruit fly (OFF)): did not affect OFF oviposition

CCCCCCC(=O)O [C7:0, Enanthic acid]
effect on female B. dorsalis attraction and oviposition to host fruit odors (Bactrocera dorsalis): significantly reduced | effect on melon fly oviposition vs control [1]: increased melon fly oviposition | effect on OFF oviposition (oriental fruit fly (OFF)): did not affect OFF oviposition

CCCCCCCC(=O)OC [C8:0 ME, Methyl caprylate]
effect on female B. dorsalis attraction and oviposition to host fruit odors (Bactrocera dorsalis): significantly reduced | fewer Z. cucurbitae captured in traps baited with FAME vs control (Zeugodacus cucurbitae): 97.1%

CCCCCCCCC(=O)O [C9:0, Pelargonic acid]
effect on OFF oviposition vs control agar [2]: significantly reduced | effect on female B. dorsalis attraction and oviposition to host fruit odors (Bactrocera dorsalis): significantly reduced | effect on melon fly oviposition vs control [1]: did not affect melon fly oviposition

CCCCCCCCCC(=O)OC [C10:0 ME, Methyl caprate]
effect on female B. dorsalis attraction and oviposition to host fruit odors (Bactrocera dorsalis): significantly reduced | fewer Z. cucurbitae captured in traps baited with FAME vs control (Zeugodacus cucurbitae): 76.0%

CCCCCCCCCCCC(=O)OC [C12:0 ME, Methyl laurate]
effect on female B. dorsalis attraction and oviposition to host fruit odors (Bactrocera dorsalis): significantly reduced | fewer Z. cucurbitae captured in traps baited with FAME vs control (Zeugodacus cucurbitae): 55.5%

CCCCCCCCCCCCC(=O)O [C13:0, Tridecylic acid]
effect on OFF oviposition vs control agar [2]: significantly reduced | fewer melon fly eggs on treated pumpkin juice agar vs control agar [1]: 75.7%

CCCCCCCCCCCCCC(=O)OC [C14:0 ME, Methyl myristate]
effect on melon fly behavior (Zeugodacus cucurbitae): did not affect melon fly behavior

CCCCCCCCCCCCCCC(=O)O [C15:0, Pentadecylic acid]
effect on melon fly oviposition vs control [1]: increased melon fly oviposition

CCCCCCCCCCCCCCCC(=O)OC [C16:0 ME, Methyl palmitate]
effect on melon fly behavior (Zeugodacus cucurbitae): did not affect melon fly behavior

CCCCCCCCCCCCCCCCC(=O)O [C17:0, Margaric acid]
effect on melon fly oviposition vs control [1]: increased melon fly oviposition

CCCCCCCCCCCCCCCCCC(=O)OC [C18:0ME, Methyl stearate]
effect on melon fly behavior (Zeugodacus cucurbitae): did not affect melon fly behavior

CCCCCCCC/C=C\CCCCCCCC(=O)OC [C18:1ME, Methyl Oleate]
fewer Z. cucurbitae captured in traps baited with FAME vs control (Zeugodacus cucurbitae): 91.8%

CCCCC/C=C\C/C=C\CCCCCCCC(=O)OC [C18:2ME, Methyl linoleate]
effect on melon fly behavior (Zeugodacus cucurbitae): did not affect melon fly behavior

CCCCCCCCCCCCCCCCCCC(=O)O [C19:0, Nonadecylic acid]
effect on melon fly oviposition vs control [1]: did not affect melon fly oviposition
